Where two headings read alike, the source gives them in different places.
Tests used:
SW620 cells = assay: 3D cell growth inhibition of SW620 cells carrying endogenous KRAS G12V mutation (CellTiter-Glo 3D, GI50); type: cell-based; settings: Homo sapiens, SW-620, 144 h, read-out: SW620 3D cell growth GI50
Method in brief: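 […], compound exposure lasted 6 days at 37° C, added the day after plating from DMSO stocks over a concentration range. Cells: SW620, KRAS G12V, 3D culture.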

KRAS G12V = KRAS G12V (Homo sapiens (Human), UniProt P01116, G12V); assay: KRAS G12V degradation in SW620 cells (Western blot, DC50); type: cell-based; settings: 24 hours
Sequence of KRAS G12V (P01116-2 other isoform, or with tags, fused parts or gaps G12V): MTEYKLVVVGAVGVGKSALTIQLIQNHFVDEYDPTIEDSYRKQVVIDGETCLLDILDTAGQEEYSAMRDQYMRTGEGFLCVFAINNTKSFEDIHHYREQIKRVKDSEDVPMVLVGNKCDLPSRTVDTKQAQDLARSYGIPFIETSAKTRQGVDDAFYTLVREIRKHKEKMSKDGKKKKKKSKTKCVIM
Method in brief: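 KRAS levels were quantified by fluorescent Western blot as percent of the DMSO control after 24 h of compound exposure at 37° C in homozygous KRAS G12V SW620 cells. A four-parameter variable-slope fit of the dose-response gave the half-maximal degradation concentration.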

KRAS-G12V/RAF1 = KRAS-G12V/RAF1 (Homo sapiens (Human), UniProt P01116, G12V); assay: KRAS/RAF1 binding inhibition assay (AlphaScreen)
Sequence of KRAS-G12V/RAF1 (P01116-2 other isoform, or with tags, fused parts or gaps G12V): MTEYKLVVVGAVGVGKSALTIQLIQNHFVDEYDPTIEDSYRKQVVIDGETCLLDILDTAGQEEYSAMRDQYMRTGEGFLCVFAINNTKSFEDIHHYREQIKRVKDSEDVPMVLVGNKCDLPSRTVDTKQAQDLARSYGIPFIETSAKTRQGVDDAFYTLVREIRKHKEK
Method in brief: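 IC50 comes from variable-slope nonlinear fits of % inhibition (relative to DMSO) against inhibitor concentration. The AlphaScreen signal tracks the interaction of GppNHp-bound KRAS G12V with the RAF1 RBD after 60 min at 4° C with compound in 2% DMSO final.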

[1] = Pharmacokinetics following single intravenous and oral gavage dosing (AUC0-24h); type: in vivo; settings: mouse, plasma; single oral dose 30 mg/Kg, male CD-1 mice
Method in brief: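 Male CD-1 mice (3 per route) given a single iv (5 mL/kg) or oral gavage (10 mL/kg) dose in 10% DMSO/30% PEG400/60% aqueous 20% hydroxypropyl-β-cyclodextrin. Plasma sampled to 24 h and measured by LC/MS/MS. PK parameters derived by non-compartmental analysis.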

Structure (SMILES): CCc1cccc2cc(O)cc(-c3ncc4c(N5CCC[C@@](C)(O)C5)nc(OCC5(CN6CCC(F)(CN7CCN(c8ccc9c(c8)CN([C@H]8CCC(=O)NC8=O)C9=O)CC7)CC6)CC5)nc4c3F)c12 [Compound 33, (S)-3-(5-(4-((1-((1-(((7-(8-ethyl-3-hydroxynaphthalen-1-yl)-8-fluoro-4-((R)-3-hydroxy-3-methylpiperidin-1-yl)pyrido[4,3-d]pyrimidin-2-yl)oxy)methyl)cyclopropyl)methyl)-4-fluoropiperidin-4-yl)methyl)piperazin-1-yl)-1-oxoisoindolin-2-yl)piperidine-2,6-dione]
- GI50 (SW620 cells; SW620 cells, 6 days): < 10 nM
- DC50 (KRAS G12V): < 1 nM
- IC50 (KRAS-G12V/RAF1): 20 to 200 nM
- AUC(0-t) [1]: 509 ng·h/mL

Structure (SMILES): CCc1c(F)ccc2cc(O)cc(-c3ncc4c(N5CCC[C@@](C)(O)C5)nc(OCC5(CN6CCC(C)(CN7CCC(N8CCN(c9ccc%10c(c9)CN([C@H]9CCC(=O)NC9=O)C%10=O)CC8)CC7)CC6)CC5)nc4c3F)c12 [Compound 213, (S)-3-(5-(4-(1-((1-((1-(((7-(8-ethyl-7-fluoro-3-hydroxynaphthalen-1-yl)-8-fluoro-4-((R)-3-hydroxy-3-methylpiperidin-1-yl)pyrido[4,3-d]pyrimidin-2-yl)oxy)methyl)cyclopropyl)methyl)-4-methylpiperidin-4-yl)methyl)piperidin-4-yl)piperazin-1-yl)-1-oxoisoindolin-2-yl)piperidine-2,6-dione]
- GI50 (SW620 cells; SW620 cells, 6 days): < 10 nM
- DC50 (KRAS G12V): < 1 nM
- IC50 (KRAS-G12V/RAF1): < 20 nM
- AUC(0-t) [1]: 1360 ng·h/mL

Structure (SMILES): CCc1c(F)ccc2cc(O)cc(-c3ncc4c(N5CCCC6(CCO6)C5)nc(OCC5(CN6CCC(F)(CN7CCN(c8ccc9c(c8)CN([C@H]8CCC(=O)NC8=O)C9=O)CC7)CC6)CC5)nc4c3F)c12 (stereo partly drawn) [Compound 41, (3S)-3-(5-(4-((1-((1-(((7-(8-ethyl-7-fluoro-3-hydroxynaphthalen-1-yl)-8-fluoro-4-(1-oxa-6-azaspiro[3.5]nonan-6-yl)pyrido[4,3-d]pyrimidin-2-yl)oxy)methyl)cyclopropyl)methyl)-4-fluoropiperidin-4-yl)methyl)piperazin-1-yl)-1-oxoisoindolin-2-yl)piperidine-2,6-dione]
- GI50 (SW620 cells; SW620 cells, 6 days): < 10 nM
- DC50 (KRAS G12V): 1 to 10 nM
- IC50 (KRAS-G12V/RAF1): 20 to 200 nM
- AUC(0-t) [1]: 1850 ng·h/mL

Structure (SMILES): CCc1c(F)ccc2cc(O)cc(-c3ncc4c(N5CCC[C@@](C)(O)C5)nc(OCC5(CN6CCC7(CC6)CC(N6CCN(c8cc(F)c(C9CCC(=O)NC9=O)c(F)c8)CC6)C7)CC5)nc4c3F)c12 (stereo partly drawn) [Compound 50, 3-(4-(4-(7-((1-(((7-(8-ethyl-7-fluoro-3-hydroxynaphthalen-1-yl)-8-fluoro-4-((R)-3-hydroxy-3-methylpiperidin-1-yl)pyrido[4,3-d]pyrimidin-2-yl)oxy)methyl)cyclopropyl)methyl)-7-azaspiro[3.5]nonan-2-yl)piperazin-1-yl)-2,6-difluorophenyl)piperidine-2,6-dione]
- GI50 (SW620 cells; SW620 cells, 6 days): < 10 nM
- DC50 (KRAS G12V): < 1 nM
- IC50 (KRAS-G12V/RAF1): 20 to 200 nM
- AUC(0-t) [1]: 3900 ng·h/mL

Structure (SMILES): CCc1c(F)ccc2cc(O)cc(-c3ncc4c(N5CCC[C@@](C)(O)C5)nc(OCC5(CN6CCC(C)(CN7CCN(c8cc(F)c(C9CCC(=O)NC9=O)c(F)c8)CC7)CC6)CC5)nc4c3F)c12 (stereo partly drawn) [Compound 48, 3-(4-(4-((1-((1-(((7-(8-ethyl-7-fluoro-3-hydroxynaphthalen-1-yl)-8-fluoro-4-((R)-3-hydroxy-3-methylpiperidin-1-yl)pyrido[4,3-d]pyrimidin-2-yl)oxy)methyl)cyclopropyl)methyl)-4-methylpiperidin-4-yl)methyl)piperazin-1-yl)-2,6-difluorophenyl)piperidine-2,6-dione]
- GI50 (SW620 cells): < 10 nM
- DC50 (KRAS G12V): 1 to 10 nM
- IC50 (KRAS-G12V/RAF1): 20 to 200 nM
- AUC(0-t) [1]: 17200 ng·h/mL
